From US20130261178A1, “PHENOXYPROPANOL DERIVATIVES AND THEIR USE IN TREATING CARDIAC AND CARDIOVASCULAR DISEASES” (priority 2010, published 2013)

Assays:
[1] = system: conscious, freely-moving rats; assay: regional haemodynamics in conscious, freely-moving rats (responses to salbutamol and isoprenaline); assay type: in vivo, rat; settings: atropine-treated rats
Text: Preliminary assessment of the action of one of the compounds of the invention was undertaken using an in vivo model for monitoring regional haemodynamics in conscious, freely-moving rats (Gardiner & Bennett, Am J Physiol. 1988 October; 255(4 Pt 2):H813-24). This model has the distinct advantage of enabling measurement of regional blood flow in addition to blood pressure in the fully conscious state.

[2] = target: T1, beta1-adrenoceptor (Homo sapiens, UniProt P08588); assay: 3H-CGP12177 whole-cell binding, CHO cells expressing human beta1-adrenoceptor; design: expressed in transfected cells; host or cells: CHO cells; settings: 3H-CGP 12177 whole cell binding, mean ± s.e.mean; for Kd: log KD, read-out: Beta 1 Log KD (converted)
Text: (§1) The selectivity of a ligand is given by the ratio of beta-1 to beta-2 KD.
Target sequence in this assay (P08588 whole entry): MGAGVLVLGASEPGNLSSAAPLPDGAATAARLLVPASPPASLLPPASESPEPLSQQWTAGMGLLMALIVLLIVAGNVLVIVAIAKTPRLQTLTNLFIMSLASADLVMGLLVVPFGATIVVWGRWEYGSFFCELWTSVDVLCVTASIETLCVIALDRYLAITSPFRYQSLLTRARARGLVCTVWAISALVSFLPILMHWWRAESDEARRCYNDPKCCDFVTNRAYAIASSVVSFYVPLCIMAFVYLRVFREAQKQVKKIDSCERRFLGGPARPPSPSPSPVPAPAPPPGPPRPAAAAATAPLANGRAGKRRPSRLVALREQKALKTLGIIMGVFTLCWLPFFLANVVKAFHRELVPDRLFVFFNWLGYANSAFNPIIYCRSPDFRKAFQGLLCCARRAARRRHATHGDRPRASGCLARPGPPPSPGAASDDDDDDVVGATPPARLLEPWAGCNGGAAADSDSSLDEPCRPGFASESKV

[3] = target: T2, human beta2-adrenoceptor (Homo sapiens, UniProt P07550); assay: 3H-CGP12177 whole-cell binding, CHO cells expressing human beta2-adrenoceptor; settings: 3H-CGP 12177 whole cell binding, mean ± s.e.mean; for Kd: log KD, read-out: Beta 2 Log KD (converted)
T2 construct: expressed in transfected cells; host or cells: CHO cells
Text: as §1

[4] = target: T3, human beta3-adrenoceptor (Homo sapiens, UniProt P13945); assay: 3H-CGP12177 whole-cell binding, CHO cells expressing human beta3-adrenoceptor; settings: 3H-CGP 12177 whole cell binding, log KD, mean ± s.e.mean, read-out: Beta 3 Log KD (converted)
T3 construct: expressed in transfected cells; host or cells: CHO cells

[5] = target: T1, beta1-adrenoceptor; settings: background statement; cited from earlier work
Target sequence in this assay (P08588 whole entry, species assumed): as the sequence (P08588 whole entry) above

T3 sequence (P13945 whole entry): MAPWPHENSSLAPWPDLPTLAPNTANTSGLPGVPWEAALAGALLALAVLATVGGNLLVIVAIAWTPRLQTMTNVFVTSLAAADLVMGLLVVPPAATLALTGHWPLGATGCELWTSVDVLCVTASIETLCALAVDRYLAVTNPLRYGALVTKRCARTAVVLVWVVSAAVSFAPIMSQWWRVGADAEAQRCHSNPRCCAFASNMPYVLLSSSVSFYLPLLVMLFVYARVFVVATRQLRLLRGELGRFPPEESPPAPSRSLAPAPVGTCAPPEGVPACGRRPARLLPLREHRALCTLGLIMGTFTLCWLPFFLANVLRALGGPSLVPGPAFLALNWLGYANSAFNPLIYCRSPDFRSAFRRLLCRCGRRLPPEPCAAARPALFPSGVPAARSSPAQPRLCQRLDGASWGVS
T2 sequence (P07550 whole entry): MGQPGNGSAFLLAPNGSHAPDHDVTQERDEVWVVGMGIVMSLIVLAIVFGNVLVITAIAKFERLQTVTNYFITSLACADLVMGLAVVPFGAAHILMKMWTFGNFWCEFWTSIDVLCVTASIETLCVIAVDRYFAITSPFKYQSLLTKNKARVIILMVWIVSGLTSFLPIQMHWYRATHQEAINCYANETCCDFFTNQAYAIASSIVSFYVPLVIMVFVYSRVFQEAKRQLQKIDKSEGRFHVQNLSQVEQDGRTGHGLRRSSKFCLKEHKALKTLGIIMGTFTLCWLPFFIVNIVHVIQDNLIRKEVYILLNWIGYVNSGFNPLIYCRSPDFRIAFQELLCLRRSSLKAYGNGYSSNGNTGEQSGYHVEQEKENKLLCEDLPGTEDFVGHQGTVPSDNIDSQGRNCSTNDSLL

Kd [2] [µM] | Kd [3] [µM] | Kd [4] [µM] | melting point [°C] | Beta 1 Log KD [2] | Beta 2 Log KD [3] | SMILES | further results
0.0302 | > 100 | 24.5 |  |  |  | O=C(NCCNCC(O)COc1ccc(OCCOCC2CC2)cc1)Nc1ccc(O)cc1 (stereo not shown) [46a] | beta1-adrenoceptor selectivity in a conscious rat cardiovascular model ([1]; 10 mg/kg i.v.): highly beta1-adrenoceptor selective; reflex heart rate response to salbutamol ([1]; n=4, after 46a 10 mg/kg i.v., before +55±14): +7±4 beats/min; isoprenaline-induced tachycardia ([1]; n=4, after 46a 10 mg/kg i.v., before +74±12): +11±4 beats/min; increase in hindquarters vascular conductance (salbutamol) ([1]; n=4, after 46a 10 mg/kg i.v., before +106±20): +98±15%; increase in hindquarters vascular conductance (isoprenaline) ([1]; n=4, after 46a 10 mg/kg i.v., before +126±20): +129±19%; hypotension (salbutamol) ([1]; n=4, after 46a 10 mg/kg i.v., before −11±1): −11±3 mmHg; hypotension (isoprenaline) ([1]; n=4, after 46a 10 mg/kg i.v., before −19±3): −18±2 mmHg
 | 1.02 | 1.12 | 113 to 115 | −8.50 ± 0.07 |  | O=C(NCCNCC(O)COc1ccc(OCCOCCc2ccc(F)cc2)cc1)Nc1ccc(O)cc1 (stereo not shown) [46b] | 
0.0126 | 3.02 | 24 | 109 to 115 |  |  | O=C(NCCNCC(O)COc1ccc(OCCOC2CCCC2)cc1)Nc1ccccc1 (stereo not shown) [47a] | 
 |  | 17.4 | 114 to 115 | −7.33 ± 0.03 | −6.27 ± 0.02 | Cc1ccccc1NC(=O)NCCNCC(O)COc1ccc(OCCOC2CCCC2)cc1 (stereo not shown) [47b] | 
 |  | 22.9 | 142 to 144 | −7.76 ± 0.04 |  | Cc1ccc(NC(=O)NCCNCC(O)COc2ccc(OCCOC3CCCC3)cc2)cc1 (stereo not shown) [47d] | 
 |  | 13.8 | 78 to 83 | −7.02 ± 0.04 | −5.93 ± 0.02 | COc1ccccc1NC(=O)NCCNCC(O)COc1ccc(OCCOC2CCCC2)cc1 (stereo not shown) [47e] | 
 |  | 17.4 | 103 to 110 | −7.76 ± 0.03 | −6.05 ± 0.03 | COc1cccc(NC(=O)NCCNCC(O)COc2ccc(OCCOC3CCCC3)cc2)c1 (stereo not shown) [47f] | 
 |  | 20 | 121 to 125 | −7.80 ± 0.04 | −5.86 ± 0.04 | COc1ccc(NC(=O)NCCNCC(O)COc2ccc(OCCOC3CCCC3)cc2)cc1 (stereo not shown) [47g] | 
 |  | 21.4 | 115 to 117 | −7.82 ± 0.03 | −5.94 ± 0.04 | O=C(NCCNCC(O)COc1ccc(OCCOC2CCCC2)cc1)Nc1ccccc1F (stereo not shown) [47h] | 
 |  | 18.6 | 108 to 110 | −8.17 ± 0.03 | −6.54 ± 0.02 | O=C(NCCNCC(O)COc1ccc(OCCOC2CCCC2)cc1)Nc1cccc(F)c1 (stereo not shown) [47i] | 
 |  | 24.5 | 130 to 133 | −7.70 ± 0.04 | −5.92 ± 0.09 | O=C(NCCNCC(O)COc1ccc(OCCOC2CCCC2)cc1)Nc1ccc(F)cc1 (stereo not shown) [47j] | 
 |  | 18.6 | 99 to 103 | −7.11 ± 0.03 |  | O=C(NCCNCC(O)COc1ccc(OCCOC2CCCC2)cc1)Nc1ccccc1Cl (stereo not shown) [47k] | 
 |  | 13.5 | 133 to 140 | −7.95 ± 0.05 | −5.91 ± 0.86 | O=C(NCCNCC(O)COc1ccc(OCCOC2CCCC2)cc1)Nc1ccc(Cl)cc1 (stereo not shown) [47m] | 
 |  | 10.2 | 120 to 122 | −7.92 ± 0.05 |  | O=C(NCCNCC(O)COc1ccc(OCCOC2CCCC2)cc1)Nc1cccc(Br)c1 (stereo not shown) [47o] | 
 |  | 9.33 | 148 to 150 | −7.77 ± 0.04 | −5.86 ± 0.04 | O=C(NCCNCC(O)COc1ccc(OCCOC2CCCC2)cc1)Nc1ccc(Br)cc1 (stereo not shown) [47p] | 
 |  | 24 | 128 to 130 | −6.94 ± 0.01 | −5.84 ± 0.02 | O=C(NCCNCC(O)COc1ccc(OCCOC2CCCC2)cc1)Nc1ccccc1C(F)(F)F (stereo not shown) [47q] | 
 |  | 11.5 | 96 to 98 | −7.77 ± 0.06 | −5.86 ± 0.06 | O=C(NCCNCC(O)COc1ccc(OCCOC2CCCC2)cc1)Nc1cccc(C(F)(F)F)c1 (stereo not shown) [47r] | 
 |  | 11.7 | 134 to 136 | −7.70 ± 0.04 | −5.76 ± 0.04 | O=C(NCCNCC(O)COc1ccc(OCCOC2CCCC2)cc1)Nc1ccc(C(F)(F)F)cc1 (stereo not shown) [47s] | 
0.00692 |  | 8.32 | 135 to 138 |  | −5.45 ± 0.10 | O=C(NCCNCC(O)COc1ccc(OCCOC2CCCC2)cc1)Nc1ccc(O)cc1 (stereo not shown) [47v] | 
0.00955 | 1.32 | 8.91 | 113 to 115 |  |  | O=C(NCCNCC(O)COc1ccc(OCCOC2CCCC2)cc1)Nc1ccc(F)c(F)c1 (stereo not shown) [54a, 1-(2-(3-(4-(2-(Cyclopentyloxy)ethoxy)phenoxy)-2-hydroxypropylamino)ethyl)-3-(3,4-difluorophenyl)urea] | 
0.204 | 1.74 | 3.09 | 75 to 76 |  |  | O=C(NCCNCC(O)COc1ccc(OCCOC2CCCC2)cc1)c1ccccc1F (stereo not shown) [54g] | 
0.0741 | 0.55 | 1.12 | 85 to 86 |  |  | O=C(NCCNCC(O)COc1ccc(OCCOC2CCCC2)cc1)c1cccc(F)c1 (stereo not shown) [54h] | 
0.0275 | 0.363 | 2.04 | 99 to 100 |  |  | O=C(NCCNCC(O)COc1ccc(OCCOC2CCCC2)cc1)c1ccc(F)cc1 (stereo not shown) [54i] | 
 |  |  |  |  |  | CCOCCOc1ccc(OC[C@@H](O)CNCCc2ccc(OC)c(OC)c2)cc1 [D-140S] | β1-selectivity [5]: 4.400 fold
0.0347 | 0.912 | 4.47 | 155 to 157 |  |  | OC(CNCCOc1ccccc1)COc1ccc(OCCOC2CCCC2)cc1 (stereo not shown) [compound 48, 1-(2-Phenoxyethylamino)-3-(4-(2-(cyclopentyloxy)ethoxy)phenoxy)propan-2-ol] | 
